From patent publication US20250154157A1, “HETEROCYCLIC COMPOUNDS USEFUL FOR TREATING A ERK5-MEDIATED DISEASE” (Cancer Research Technology Limited, priority 2022, published 2025)

Experiments:
Assay type in all cases: cell-based
[1] = system: TNBC cells (MDA-MB-231, MDA-MB-468 and SUM159); assay: Immunofluorescence, morphology of TNBC cells (FIG. 10); conditions: 1 μM OS1 or 2.5 μM AX15836; MDA-MB-231, MDA-MB-468, SUM159
Description: (§1) Cells were seeded and treated. Media was aspirated, cells were washed with PBS and subsequently fixed in 10% formalin for 10 minutes. Fixed cells were washed in PBS and then permeablised with 0.1% (v/v) Triton-100 in PBS for 10 minutes. Cells were washed with PBS and the non-specific binding sites were blocked by incubating with 1% BSA for 30 minutes. Targets of interested were identified by incubating with 100 μl of primary antibody diluted in 1% BSA (see table) overnight at 4° C. After washing with PBS, samples were further incubated with species specific secondary antibody coupled to fluorescent tags (see antibody table) for 1 hour in the dark at room temperature. Some samples were further incubated with 100 μl of 1:200 phalloidin (Invitrogen, A12381) in 1% BSA for 2 hours at room temperature to identify actin filament structures. The EZ-slides casing was dismantled as described in manufacturer's instruction and slides were washed in distilled H2O. Samples were incubated with one drop of Mounting Medium with DAPI (abcam) for 5 minutes in the dark at room temperature to visualise the nuclei. A coverslip was added to each slide and allowed to dry at room temperature. Images were acquired on a 3D-Histech Pannoramic-250 microscope slide-scanner using a 20×/0.80 Plan Apochromat objective (Zeiss) and the DAPI, FITC and TRITC filter sets. […] Images were then processed and analysed using ImageJ. […]

[2] = system: EMT, angiogenesis and pro-tumour inflammation genes (N-cadherin, cytokeratin, B1-integrin, VEGF, IL6, IL1b, E-cadherin); assay: qRT-PCR, mRNA levels of EMT, angiogenesis and inflammatory regulators in TNBC cell lines (FIG. 11)
Description: qRT-PCR: Total RNA was isolated from cells using TRIZOL and/or the miRNeasy mini kit (Qiagen). We carried out cDNA synthesis as previously described by Green, D., Eyre, H., Singh, A. et al (Targeting the MAPK7/MMP9 axis for metastasis in primary bone cancer. Oncogene 39, 5553-5569 (2020)). We performed qPCR using the SYBR Green I core kit (Eurogentec). PCR products were detected in the ABI PRISM® 7700 sequence detection system (Thermo Fisher Scientific). We analysed results using the […]. Gene expression was normalised to PGK1 or ACTB.
Relative mRNA levels, compared to internal control PGK1 or ACTB, in three triple negative breast cancer cell lines: MDA-MB-231, MDA-MB-468 and SUM159.

ERK1/2 [3] = assay: Immunoblotting, specificity testing in 3 TNBC cell lines (FIG. 8): ERK1/2 levels; conditions: range of doses
Description: (§2) We extracted proteins in RIPA assay buffer containing protease and phosphatase inhibitors. We resolved extracts (30 μg) by SDS/PAGE and electrophoretically transferred to an Immun-Blot® PVDF membrane (Bio-Rad). Membranes were saturated in 3% non-fat dry milk or 3% BSA and probed overnight at 4° C. with antibodies (1:1,000 dilution unless otherwise indicated) to ERK5, P-ERK5, ERK1/2, BRD4, MEK5 and β-actin. We detected immunocomplexes by enhanced chemiluminescence with IgG coupled to horseradish peroxidase as the secondary anti-rabbit and anti-mouse antibodies (Abcam).
(§3) Left hand side panels are Western blot images, showing the relative expression of proteins in response to a range of doses of OS1. Right hand side panels are graphs quantifying the western blot images to show ERK5, phospho-ERK5, ERK1/2 and BRD4 protein levels relative to the loading control β-actin.

ERK5 [4] = molecular target: T1, ERK5 (Homo sapiens, UniProt Q13164); assay: Immunofluorescence, ERK5 staining in TNBC cells (FIG. 10); parameters: endogenous in cells; host or cells: MDA-MB-231, MDA-MB-468, SUM159; conditions: 1 μM OS1, TNBC cell lines
Description: as §1

p-ERK5 = molecular target: T2, p-ERK5 (Homo sapiens, UniProt Q13164); assay: Immunoblotting in 3 TNBC cell lines (FIG. 8): phospho-ERK5 levels; conditions: at higher doses
T2 construct: endogenous in cells; host or cells: MDA-MB-231, MDA-MB-468, SUM159
Description: as §2, §3

BRD4 [5] = molecular target: T3, BRD4 (Homo sapiens, UniProt O60885); assay: Immunoblotting, specificity testing in 3 TNBC cell lines (FIG. 8): BRD4 levels; parameters: endogenous in cells; conditions: range of doses
Description: as §2, §3

BRD4 [6] = molecular target: T3, BRD4; assay: Immunoblotting, comparison with Example 7 of WO2021061894 in MDA-MB-468 cells (FIGS. 12 and 13): BRD4; parameters: endogenous in cells; host or cells: MDA-MB-231, MDA-MB-468, SUM159; conditions: 48 hours after a single dose, Comparative Example 7 at 5 μM
Description: as §2, with “ERK5,” for “ERK5, P-ERK5, ERK1/2,”
(§4) OS1 and OS11 degrade EKR5 at lower concentrations than Comparative Example 7. OS1 is efficacious at degrading ERK5 at doses of 0.1 μM and OS11 at 0.01 μM. In contrast, a dose of 5 μM of Comparative Example 7 is required to achieve analogous ERK5 degradation to 0.1 μM OS1 or 0.01 μM OS11.

ERK5 [7] = molecular target: T1, ERK5; assay: Immunoblotting, 8 point dose response to OS1 in 3 TNBC cell lines (FIG. 8): ERK5 levels; parameters: endogenous in cells; host or cells: MDA-MB-231, MDA-MB-468, SUM159
Description: as §2, §3

BRD4 [8] = molecular target: T3, BRD4; assay: Repeated dosing of OS1 up to 2 weeks, immunoblotting (FIG. 9): BRD4; parameters: endogenous in cells; conditions: 1 μM every 48 h for up to two weeks, TNBC cell lines
Description: as §2, with “ERK5,” for “ERK5, P-ERK5, ERK1/2,”

MEK5 = molecular target: T4, MEK5 (Homo sapiens, UniProt Q13163); assay: Repeated dosing of OS1 up to 2 weeks, immunoblotting (FIG. 9): MEK5; conditions: 1 μM every 48 h for up to two weeks, TNBC cell lines
T4 construct: endogenous in cells; host or cells: MDA-MB-231, MDA-MB-468, SUM159
T4 sequence (Q13163 1-448): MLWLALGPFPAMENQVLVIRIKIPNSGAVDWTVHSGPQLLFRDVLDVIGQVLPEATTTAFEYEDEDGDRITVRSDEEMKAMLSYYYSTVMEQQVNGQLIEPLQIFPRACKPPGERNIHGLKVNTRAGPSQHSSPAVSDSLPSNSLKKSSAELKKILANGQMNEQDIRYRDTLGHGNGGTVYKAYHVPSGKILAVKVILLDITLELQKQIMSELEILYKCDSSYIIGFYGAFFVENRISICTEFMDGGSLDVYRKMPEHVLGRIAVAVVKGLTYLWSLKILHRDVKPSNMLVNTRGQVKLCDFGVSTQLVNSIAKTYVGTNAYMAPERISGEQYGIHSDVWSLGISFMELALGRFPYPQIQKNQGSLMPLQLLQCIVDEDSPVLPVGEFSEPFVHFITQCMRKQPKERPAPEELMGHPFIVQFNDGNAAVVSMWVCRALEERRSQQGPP
Description: as §2, with “ERK5,” for “ERK5, P-ERK5, ERK1/2,”

ERK1/2 [9] = assay: Repeated dosing of OS1 up to 2 weeks, immunoblotting (FIG. 9): ERK1/2; conditions: 1 μM every 48 h for up to two weeks, TNBC cell lines
ERK5 [10] = molecular target: T1, ERK5; assay: Immunoblotting, comparison with Example 7 of WO2021061894 in MDA-MB-468 cells (FIGS. 12 and 13): ERK5; parameters: endogenous in cells; host or cells: MDA-MB-468; conditions: 48 hours after a single dose, relative to b-actin
Description: as §2, with “ERK5,” for “ERK5, P-ERK5, ERK1/2,”
as §4

[11] = 24 h treatment, mRNA relative to PGK1 or ACTB, three TNBC cell lines

T1 sequence (Q13164 whole entry): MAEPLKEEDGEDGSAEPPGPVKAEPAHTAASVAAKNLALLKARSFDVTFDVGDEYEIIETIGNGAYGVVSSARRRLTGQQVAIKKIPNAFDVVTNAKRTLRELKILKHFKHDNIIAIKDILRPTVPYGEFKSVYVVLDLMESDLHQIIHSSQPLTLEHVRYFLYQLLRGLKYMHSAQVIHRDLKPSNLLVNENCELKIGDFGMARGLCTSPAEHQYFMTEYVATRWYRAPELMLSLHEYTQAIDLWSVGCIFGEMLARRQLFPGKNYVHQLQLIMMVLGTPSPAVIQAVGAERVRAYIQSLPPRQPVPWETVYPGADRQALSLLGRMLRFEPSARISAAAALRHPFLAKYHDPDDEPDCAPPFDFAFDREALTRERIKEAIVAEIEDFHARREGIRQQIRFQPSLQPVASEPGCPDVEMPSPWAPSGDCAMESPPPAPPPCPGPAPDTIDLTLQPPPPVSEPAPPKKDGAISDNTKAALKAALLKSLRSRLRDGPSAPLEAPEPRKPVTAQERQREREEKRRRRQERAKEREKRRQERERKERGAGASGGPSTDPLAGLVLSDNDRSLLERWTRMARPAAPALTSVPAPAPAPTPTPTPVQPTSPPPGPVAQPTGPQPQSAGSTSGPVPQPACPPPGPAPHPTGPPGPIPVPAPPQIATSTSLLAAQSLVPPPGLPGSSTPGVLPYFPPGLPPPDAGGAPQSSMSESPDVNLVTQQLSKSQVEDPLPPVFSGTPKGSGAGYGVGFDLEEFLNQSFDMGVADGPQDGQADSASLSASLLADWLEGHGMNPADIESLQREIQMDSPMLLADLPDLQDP
T2 sequence (Q13164 whole entry): as above

Row | ERK5 staining (green), immunofluorescence (ERK5 [4]) | kinase inhibitor activity (p-ERK5 on immunoblot) (p-ERK5) | off target effects on known off-target of literature ERK5 inhibitors (BRD4) (BRD4 [5]) | degradation of off-target BRD4 (BRD4 [6]) | dose inducing the hook effect (ERK5 [7]; TNBC cell lines) [µM] | most effective dose for ERK5 degradation (ERK5 [7]; TNBC cell lines) [µM] | ERK5 degraded (ERK5 [7]; range of TNBC cell lines (MDA-MB-231, MDA-MB-468, SUM159), western blot relative to β-actin) [%] | effect of repeated dosing on BRD4 (BRD4 [8]) | effect of repeated dosing on MEK5 (MEK5) | dose efficacious at degrading ERK5 (analogous ERK5 degradation) (ERK5 [10]) [μM] | SMILES | effect on morphology of TNBC cells [1] | expression of genes that promote EMT, migration and metastatic behaviour (N-cadherin, cytokeratin, B1-integrin), angiogenesis (VEGF) and pro-tumour inflammation (IL6, IL1b) [2, 11] | off target effects on structurally similar proteins (ERK1/2) (ERK1/2 [3]) | dose most effective in affecting gene expression ([2]; 0.1 or 1 μM tested, 24 h) [µM] | expression of genes that block EMT, migration and metastatic behaviour (E-cadherin) [2, 11] | effect of repeated dosing on ERK1/2 (ERK1/2 [9])
1 | – | – | – | – | – | – | – | – | – | – | CCOc1cc(C(=O)N2CCC(N3CCN(C)CC3)CC2)ccc1Nc1ncc2c(n1)N(S(C)(=O)=O)c1ccccc1C(=O)N2C [AX15836, 5,11-Dihydro-2-[[2-ethoxy-4-[[4-(4-methyl-1-piperazinyl)-1-piperidinyl]carbonyl]phenyl]amino]-5-methyl,11-(methylsulfonyl)-6H-pyrimido[4,5-b][1,4]benzodiazepin-6-one, reference compound] | does not | not | – | – | – | –
2 | loss of ERK5 staining | reduction in p-ERK5 | no off target effects | do not cause degradation | 10 | 1 | > 90 | no effect | unaffected | 0.1 | CCOc1cc(C(=O)N2CCC(N3CCN(CCCCCc4cccc5c4C(=O)N(C4CCC(=O)NC4=O)C5=O)CC3)CC2)ccc1Nc1ncc2c(n1)N(S(C)(=O)=O)c1ccccc1C(=O)N2C (stereo not drawn) [OS1, 2-(2,6-Dioxopiperidin-3-yl)-4-(5-(4-(1-(3-ethoxy-4-((5-methyl-11-(methylsulfonyl)-6-oxo-6,11-dihydro-5H-benzo[e]pyrimido[5,4-b][1,4]diazepin-2-yl)amino)benzoyl)piperidin-4-yl)piperazin-1-yl)pentyl)isoindoline-1,3-dione] | affects morphology | induces a loss of expression | no off target effects | 1 | increase in expression | no effect
